# Measurements as given in patent US7935525B2, “Inhibition of ATF2 activity to treat cancer” (Mount Sinai School of Medicine, priority 2001, dated 2011).
# No end group written: not given here.
# Legend:
# [1] = test system: FEMX melanoma cell line; experiment: Colony forming efficiency (CFE) resistance assay; format: cell-based, human
# Procedure: (§1) Radiation resistance. Cells (500 or 1500 per well) were plated in triplicates on 6 well plates, 24 h before treatment (Ronai et al., Oncogene 1998; 16:523-531). In all cases, plating efficiency was pre-determined so that number of cell plated was normalized respectively. Colonies (greater than 50 cells per clone) were stained with crystal violet solution (3% in 10% methanol and PBS), 14 days After treatment. % of CFE in each treatment group was calculated based on total CFE formed in the respective controls (100%).
# [2] = test system: LU1205 melanoma cell line; experiment: Colony forming efficiency (CFE) resistance assay; format: cell-based, human
# Procedure: as §1
substance,measurement,setting,value
"peptide II: N-terminal polypeptide fragment of ATF2, amino acid residues 50-100, expressed from pcDNA3 with HA-penetratin tag (EMTLKFGPARNDSVIVADQTPTPTRFLKNCEEVGLFNELASPFENEFKKAS; also: HA-penetratin tag, position not given here; UniProt P15336 50-100, looked up, fragment)",decrease in the fraction of CFE,"[1]; peptide-expressing FEMX vs FEMX neo, 1 µM MMC, 14 days",≤ 10 fold
same,decrease in % of CFE,"[1]; peptide-expressing FEMX vs neo control, UV-C 9-36 J/m^2, colonies at 14 days",up to 10 fold
same,effects on the sensitivity to MMC (CFE),"[2]; peptide-expressing LU1205, MMC",much less pronounced effects
same,decrease in the % of CFE,"[2]; peptide-expressing LU1205 vs neo control, UV-C 9-36 J/m^2, colonies at 14 days",≤ 3 fold
same,sensitivity to NCS (CFE),"[2]; peptide-expressing melanoma cells, NCS",did not reveal substantial differences
